Reference: US10703764B2, “Benzopiperazine compositions as BET bromodomain inhibitors” (FORMA Therapeutics, Inc., priority 2013, dated 2020)
Read-outs that look alike come from different tables or passages of the source.

Experiments:
BRD4 BD1 = biological target: T1, BRD4 BD1 (Homo sapiens, UniProt O60885); experiment: AlphaScreen binding assay, BRD4 Bromodomain 1
T1 construct: made in house
Procedure, shortened: (§1)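 Compound dilution series were mixed with His-tagged BRD4 bromodomain and biotinylated tetra-acetylated H4 (1-21) peptide at pH 7.3 (BD1 and peptide at 50 nM, BD2 and peptide at 100 nM). Donor and acceptor beads were then added, and plates were equilibrated at least 1 h before reading. IC50 values were fitted with a four-parameter logistic model.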

MV4-11 cells = experiment: Oncology cell growth assay (3-day proliferation, CellTiter-Glo); type: cell-based; conditions: Homo sapiens, AML cell line MV4-11, 72 hours, compounds grouped by IC50 range, read-out: MV4-11 IC50 (inhibition of proliferation, gIC50)
Procedure, shortened: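 A 3-day proliferation test used MV4-11 cells seeded at 3000 per well with eight compound concentrations (10 μM top, 3-fold dilution) at 37° C in 5% CO2. CellTiter-Glo luminescence defined viable cell signal. A four-parameter logistic curve against DMSO and background wells gave the gIC50.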

BRD4 BD2 = biological target: T2, BRD4 BD2 (Homo sapiens, UniProt O60885); experiment: AlphaScreen binding assay, BRD4 Bromodomain 2
T2 construct: made in house
Procedure, shortened: as §1

| SMILES | IC50 (BRD4 BD1) | IC50 (MV4-11 cells; MV4-11, 72 h) | IC50 (BRD4 BD2) | IC50 (MV4-11 cells) |
| --- | --- | --- | --- | --- |
| CC(=O)N1c2ccc(-c3cnn(C4COC4)c3)cc2N(C(=O)OC2CC(F)(F)C2)C[C@@H]1C [Example I-65, (S)-3,3-difluorocyclobutyl 4-acetyl-3-methyl-7-(1-(oxetan-3-yl)-1H-pyrazol-4-yl)-3,4-dihydroquinoxaline-1(2H)-carboxylate] | < 0.1 µM | 0.1 to 0.5 µM | < 0.05 µM | – |
| CC(=O)N1c2ccc(-c3cnn(C4COC4)c3)cc2N(C(=O)OCCC(F)(F)F)C[C@@H]1C [Example I-69, (S)-3,3,3-trifluoropropyl 4-acetyl-3-methyl-7-(1-(oxetan-3-yl)-1H-pyrazol-4-yl)-3,4-dihydroquinoxaline-1(2H)-carboxylate] | < 0.1 µM | 0.1 to 0.5 µM | < 0.05 µM | – |
| CC(=O)N1c2ccc(-c3cnn(C4COC4)c3)cc2N(C(=O)OC2CC3CC3C2)C[C@@H]1C (stereo partly drawn) [Example I-74, (3S)-bicyclo[3.1.0]hexan-3-yl 4-acetyl-3-methyl-7-(1-(oxetan-3-yl)-1H-pyrazol-4-yl)-3,4-dihydroquinoxaline-1(2H)-carboxylate] | < 0.1 µM | 0.1 to 0.5 µM | < 0.05 µM | – |
| CC(=O)N1c2ccc(-c3cnn(C4CC4)c3)cc2N(C(=O)OCCC(F)(F)F)C[C@@H]1C [Example I-78, (S)-3,3,3-trifluoropropyl 4-acetyl-7-(1-cyclopropyl-1H-pyrazol-4-yl)-3-methyl-3,4-dihydroquinoxaline-1(2H)-carboxylate] | 0.1 to 1 µM | 0.1 to 0.5 µM | 0.05 to 0.5 µM | – |
| CC(=O)N1c2ccc(-c3cnn(CCO)c3)cc2N(C(=O)OCCC(F)(F)F)C[C@@H]1C [Example I-81, (S)-3,3,3-trifluoropropyl 4-acetyl-7-(1-(2-hydroxyethyl)-1H-pyrazol-4-yl)-3-methyl-3,4-dihydroquinoxaline-1(2H)-carboxylate] | 1 to 10 µM | 0.1 to 0.5 µM | > 0.5 µM | – |
| CC(=O)N1c2ccc(-c3cnn(CCO)c3)cc2N(C(=O)OCC(F)(F)F)C[C@@H]1C [Example I-82, (S)-2,2,2-trifluoroethyl 4-acetyl-7-(1-(2-hydroxyethyl)-1H-pyrazol-4-yl)-3-methyl-3,4-dihydroquinoxaline-1(2H)-carboxylate] | > 10 µM | > 0.5 µM | > 0.5 µM | – |
| CC(=O)N1c2ccc(-c3cnn(C4COC4)c3)cc2N(C(=O)Oc2ccc(F)cc2)C[C@@H]1C [Example I-85, 4-fluorophenyl (S)-4-acetyl-3-methyl-7-(1-(oxetan-3-yl)-1H-pyrazol-4-yl)-3,4-dihydroquinoxaline-1(2H)-carboxylate] | < 0.1 µM | 0.1 to 0.5 µM | < 0.05 µM | – |
| COc1ccc(OC(=O)N2C[C@H](C)N(C(C)=O)c3ccc(-c4cnn(C5COC5)c4)cc32)cc1 [Example I-87, (S)-4-methoxyphenyl 4-acetyl-3-methyl-7-(1-(oxetan-3-yl)-1H-pyrazol-4-yl)-3,4-dihydroquinoxaline-1(2H)-carboxylate] | < 0.1 µM | < 0.1 µM | < 0.05 µM | – |
| CC(=O)N1c2ccc(-c3cnn(C4COC4)c3)cc2N(C(=O)Oc2ccccn2)C[C@@H]1C [Example I-91, (S)-pyridin-2-yl 4-acetyl-3-methyl-7-(1-(oxetan-3-yl)-1H-pyrazol-4-yl)-3,4-dihydroquinoxaline-1(2H)-carboxylate] | < 0.1 µM | 0.1 to 0.5 µM | < 0.05 µM | – |
| CC(=O)N1c2ccc(-c3cnn(C4CC4)c3)cc2N(c2n[nH]c3ccccc23)C[C@@H]1C [Example I-93, (S)-1-(6-(1-cyclopropyl-1H-pyrazol-4-yl)-4-(1H-indazol-3-yl)-2-methyl-3,4-dihydroquinoxalin-1 (2H)-yl)ethan-1-one] | 0.1 to 1 µM | < 0.1 µM | 0.05 to 0.5 µM | – |
| CC(=O)N1c2ccc(-c3cnn(C4CC4)c3)cc2N(c2noc3ccccc23)C[C@@H]1C [Example I-95, (S)-1-(4-(benzo[d]isoxazol-3-yl)-6-(1-cyclopropyl-1H-pyrazol-4-yl)-2-methyl-3,4-dihydroquinoxalin-1(2H)-yl)ethanone] | < 0.1 µM | – | < 0.05 µM | 0.1 to 0.5 µM |

The next lines start with results.

| IC50 (BRD4 BD1) | IC50 (MV4-11 cells; MV4-11, 72 h) | IC50 (BRD4 BD2) | SMILES | IC50 (MV4-11 cells) |
| --- | --- | --- | --- | --- |
| 0.1 to 1 µM | 0.1 to 0.5 µM | 0.05 to 0.5 µM | CC(=O)N1c2ccc(-c3cnn(C4COC4)c3)cc2N(C(=O)OCC2CCC2)C[C@@H]1C [Example I-60, (S)-cyclobutylmethyl 4-acetyl-3-methyl-7-(1-(oxetan-3-yl)-1H-pyrazol-4-yl)-3,4-dihydroquinoxaline-1(2H)-carboxylate] | – |
| 0.1 to 1 µM | 0.1 to 0.5 µM | 0.05 to 0.5 µM | CC(=O)N1c2ccc(-c3cnn(C4COC4)c3)cc2N(C(=O)OCC(Cl)Cl)C[C@@H]1C [Example I-62, (S)-2,2-dichloroethyl 4-acetyl-3-methyl-7-(1-(oxetan-3-yl)-1H-pyrazol-4-yl)-3,4-dihydroquinoxaline-1(2H)-carboxylate] | – |
| < 0.1 µM | 0.1 to 0.5 µM | < 0.05 µM | CC(=O)N1c2ccc(-c3cnn(C4COC4)c3)cc2N(C(=O)OCC2(F)COC2)C[C@@H]1C [Example I-66, (S)-(3-fluorooxetan-3-yl)methyl 4-acetyl-3-methyl-7-(1-(oxetan-3-yl)-1H-pyrazol-4-yl)-3,4-dihydroquinoxaline-1(2H)-carboxylate] | – |
| < 0.1 µM | 0.1 to 0.5 µM | < 0.05 µM | CC(=O)N1c2ccc(-c3cnn(C4COC4)c3)cc2N(C(=O)OCC(F)(F)F)C[C@@H]1C [Example I-71, (S)-2,2,2-trifluoroethyl 4-acetyl-3-methyl-7-(1-(oxetan-3-yl)-1H-pyrazol-4-yl)-3,4-dihydroquinoxaline-1(2H)-carboxylate] | – |
| 0.1 to 1 µM | 0.1 to 0.5 µM | < 0.05 µM | CC(=O)N1c2ccc(-c3cnn(C4COC4)c3)cc2N(C(=O)OC(CF)CF)C[C@@H]1C [Example I-72, (S)-1,3-difluoropropan-2-yl 4-acetyl-3-methyl-7-(1-(oxetan-3-yl)-1H-pyrazol-4-yl)-3,4-dihydroquinoxaline-1(2H)-carboxylate] | – |
| < 0.1 µM | 0.1 to 0.5 µM | < 0.05 µM | CC(=O)N1c2ccc(-c3cnn(C4COC4)c3)cc2N(C(=O)OCC(C)(C)F)C[C@@H]1C [Example I-77, (S)-2-fluoro-2-methylpropyl 4-acetyl-3-methyl-7-(1-(oxetan-3-yl)-1H-pyrazol-4-yl)-3,4-dihydroquinoxaline-1(2H)-carboxylate] | – |
| 0.1 to 1 µM | 0.1 to 0.5 µM | 0.05 to 0.5 µM | CC(=O)N1c2ccc(-c3cnn(C4CC4)c3)cc2N(C(=O)OCC(F)(F)F)C[C@@H]1C [Example I-79, (S)-2,2,2-trifluoroethyl 4-acetyl-7-(1-cyclopropyl-1H-pyrazol-4-yl)-3-methyl-3,4-dihydroquinoxaline-1(2H)-carboxylate] | – |
| 0.1 to 1 µM | 0.1 to 0.5 µM | 0.05 to 0.5 µM | CC(=O)N1c2ccc(-c3cnn(C4CC4)c3)cc2N(C(=O)OC(CF)CF)C[C@@H]1C [Example I-80, (S)-1,3-difluoropropan-2-yl 4-acetyl-7-(1-cyclopropyl-1H-pyrazol-4-yl)-3-methyl-3,4-dihydroquinoxaline-1(2H)-carboxylate] | – |
| 0.1 to 1 µM | > 0.5 µM | 0.05 to 0.5 µM | CC(=O)N1c2ccc(-c3cnn(CCO)c3)cc2N(C(=O)OC(CF)CF)C[C@@H]1C [Example I-83, (S)-1,3-difluoropropan-2-yl 4-acetyl-7-(1-(2-hydroxyethyl)-1H-pyrazol-4-yl)-3-methyl-3,4-dihydroquinoxaline-1 (2H)-carboxylate] | – |
| 0.1 to 1 µM | < 0.1 µM | 0.05 to 0.5 µM | CC(=O)N1c2ccc(-c3cnn(C4COC4)c3)cc2N(C(=O)OC2CCCCC2)C[C@@H]1C [Example I-86, (S)-cyclohexyl 4-acetyl-3-methyl-7-(1-(oxetan-3-yl)-1H-pyrazol-4-yl)-3,4-dihydroquinoxaline-1(2H)-carboxylate] | – |
| 0.1 to 1 µM | < 0.1 µM | < 0.05 µM | CC(=O)N1c2ccc(-c3cnn(C4COC4)c3)cc2N(C(=O)Oc2ccccc2)C[C@@H]1C [Example I-88, (S)-phenyl 4-acetyl-3-methyl-7-(1-(oxetan-3-yl)-1H-pyrazol-4-yl)-3,4-dihydroquinoxaline-1(2H)-carboxylate] | – |
| < 0.1 µM | 0.1 to 0.5 µM | < 0.05 µM | CC(=O)N1c2ccc(-c3cnn(C4COC4)c3)cc2N(C(=O)Oc2cccnc2)C[C@@H]1C [Example I-89, (S)-pyridin-3-yl 4-acetyl-3-methyl-7-(1-(oxetan-3-yl)-1H-pyrazol-4-yl)-3,4-dihydroquinoxaline-1(2H)-carboxylate] | – |
| < 0.1 µM | 0.1 to 0.5 µM | < 0.05 µM | CC(=O)N1c2ccc(-c3cnn(C4COC4)c3)cc2N(C(=O)Oc2ccncc2)C[C@@H]1C [Example I-90, (S)-pyridin-4-yl 4-acetyl-3-methyl-7-(1-(oxetan-3-yl)-1H-pyrazol-4-yl)-3,4-dihydroquinoxaline-1(2H)-carboxylate] | – |
| 0.1 to 1 µM | < 0.1 µM | 0.05 to 0.5 µM | CC(=O)N1c2ccc(-c3ccc(S(C)(=O)=O)cc3)cc2N(c2n[nH]c3ccccc23)C[C@@H]1C [Example I-94, (S)-1-(4-(1H-indazol-3-yl)-2-methyl-6-(4-(methylsulfonyl)phenyl)-3,4-dihydroquinoxalin-1 (2H)-yl)ethan-1-one] | – |
